Experimental data from patent US4259235A, “Tricyclic nitrogenous compounds having string plant growth regulating properties” (BASF Aktiengesellschaft, priority 1977, dated 1981).
Like-named read-outs stand apart in the source and are kept apart here.

Legend:
Oryza sativa = test: Shoot growth, postemergence treatment in the greenhouse (table 25); type: in vivo
Protocol: (§1) Plastic flowerpots having a volume of 300 cm^3 were filled with a sandy loam and the test plants placed therein (either as seed, as vegetatively reproduced species, or as potted plants, e.g., vines). For preemergence treatment, the active ingredients were suspended or emulsified in water as vehicle and sprayed onto the surface of the soil immediately after sowing by means of finely distributing nozzles. The potted vines were treated by spraying them with the correspondingly diluted liquor. For postemergence treatment, the agents were, as stated above, sprayed in water onto the leaves of the test plants, some liquor also falling onto the soil. In some special cases, solid active ingredients were first dissolved in dimethylformamide and then applied in a total liquor amount of 400 liters of water per hectare. For the postemergence treatment, the plants were first grown to a height of from 3 to 10 cm before being treated. With grasses, the first growth was cut, and the new growth treated 2 to 3 days after cutting. The temperature requirements of the plants were taken into account by placing them in cooler or warmer sections of the greenhouse. The experiments were run for from 4 to 6 weeks, during which time the plants were tended and their reaction to the various treatments was assessed.
(§2) The application rates are given in kg/ha of active ingredient, regardless of the method of application and the amount of water used.
(§3) A 0 to 100 scale was used for the evaluation, 0 denoting normal emergence or no damage (or no inhibition), and 100 denoting non-emergence or complete destruction of the plants. A distinction should be made in the influence on growth between desired changes without any appreciable disadvantageous phytotoxic effects (e.g., purely growth-regulating effects) and those of a phytotoxic herbicical character.

Arachys hypogaea = test: as above; type: in vivo
Protocol: as §1, §2, §3

Poa pratensis = test: as above; type: in vivo
Protocol: as §1, §2, §3

Hordeum vulgare = test: Shoot growth, postemergence treatment in the greenhouse (table 26); type: in vivo
Protocol: as §1, §2, §3

Euphorbia geniculata [1] = test: as above; type: in vivo
Protocol: as §1, §2, §3

Cynodon dactylon = test: as above; type: in vivo; conditions: from seed
Protocol: as §1, §2, §3

Medicago sativa = test: Inhibition of shoot growth by growth regulators, pre- and postemergence (table 27); type: in vivo; conditions: post-emergence, read-out: shoot growth inhibition (%)
Protocol: as §1, §2, §3

Euphorbia geniculata [2] = test: as above; type: in vivo; conditions: Euphorbia heterophylla, post-emergence, read-out: shoot growth inhibition (%)
Protocol: as §1, §2, §3

Hordeum vulg. = test: Shoot inhibition, pre- and postemergence treatment (table 28); type: in vivo, Hordeum vulgare; conditions: post-emergence, read-out: % shoot inhibition
Protocol: as §1, §2, §3

Cynodon dactyl. = test: as above; type: in vivo, Cynodon dactylon; conditions: post-emergence, from seed, read-out: % shoot inhibition
Protocol: as §1, §2, §3

Glycine max = test: as above; type: in vivo; conditions: post-emergence, read-out: % shoot inhibition; for inhibition at 1000 g/ha: 1.0 kg/ha PRE; for inhibition at 2000 g/ha: 2.0 kg/ha PRE
Protocol: as §1, §2, §3

Poa prat. = test: as above; type: in vivo; conditions: Poa pratensis, post-emergence, read-out: % shoot inhibition
Protocol: as §1, §2, §3

Tritic. aestiv. = test: as above; type: in vivo; conditions: post-emergence, read-out: % shoot inhibition
Protocol: as §1, §2, §3

Euphorbia genic. = test: as above; type: in vivo, Euphorbia geniculata; conditions: post-emergence, read-out: % shoot inhibition; for inhibition at 1000 g/ha: 1.0 kg/ha PRE; for inhibition at 2000 g/ha: 2.0 kg/ha PRE
Protocol: as §1, §2, §3

Arachys hypog. = test: as above; type: in vivo, Arachys hypogaea; conditions: post-emergence, read-out: % shoot inhibition
Protocol: as §1, §2, §3

Galium apar. = test: Herbicidal action, pre- and postemergence application in the greenhouse; type: in vivo, Galium aparine; conditions: post-emergence, 3.0 kg/ha POST, read-out: % damage
Protocol: as §1, §2, §3

Ipom. spp. = test: as above; type: in vivo, Ipomoea spp.; conditions: Ipomoea, post-emergence; 3.0 kg/ha POST; read-out: % damage
Protocol: as §1, §2, §3

Mentha piper. = test: as above; type: in vivo; conditions: post-emergence; 3.0 kg/ha POST; read-out: % damage
Protocol: as §1, §2, §3

Lolium mult. = test: as above; type: in vivo; conditions: Lolium, post-emergence, read-out: % damage
Protocol: as §1, §2, §3

Sinapis alba = test: as above; type: in vivo; conditions: post-emergence, 3.0 kg/ha PRE, read-out: % damage
Protocol: as §1, §2, §3

Cynodon dact. (seed) = test: as above; type: in vivo, Cynodon dactylon; conditions: appln. rate 2 kg/ha, POST line
Protocol: as §1, §2, §3

With C1C2C3N=NC3C1C1OC21 (stereo not drawn) [drawing 433] as the molecule, how does the Shoot length (Oryza sativa; 1.0 kg/ha) read?
Its Shoot length is 16 cm.

And the Shoot length (Oryza sativa; 2.0 kg/ha)?
Its Shoot length is 16 cm.

What about the Shoot length (Oryza sativa; 4.0 kg/ha) of the same molecule?
Its Shoot length is 16 cm.

What about the Shoot length (Arachys hypogaea; 1.0 kg/ha) of the same molecule?
The Shoot length was 10 cm.

And the Shoot length (Arachys hypogaea; 2.0 kg/ha)?
Its Shoot length is 10 cm.

And the Shoot length (Arachys hypogaea; 4.0 kg/ha)?
The Shoot length was 10 cm.

What about the “Leaf scorch (footnote x)” value (Poa pratensis; 1.0, 2.0 and 4.0 kg/ha) of the same molecule?
Its value is “limited leaf scorch”.

What about the Shoot length (Poa pratensis; 1.0 kg/ha) of the same molecule?
Its Shoot length is 2 cm.

And the Shoot length (Poa pratensis; 2.0 kg/ha)?
The Shoot length was 2 cm.

What about the Shoot length (Poa pratensis; 4.0 kg/ha) of the same molecule?
Its Shoot length is 2 cm.

Which Shoot length (Hordeum vulgare; 0.5 kg/ha) does the source give for Clc1ccc(NC2C(Cl)C3CC2C2N=NC32)cc1 (stereo not drawn) [drawing 435] here?
The Shoot length was 12.5 cm.

And the Shoot length (Hordeum vulgare; 1.0 kg/ha)?
The Shoot length was 12 cm.

And the Shoot length (Hordeum vulgare; 2.0 kg/ha)?
The Shoot length was 12 cm.

What about the Shoot length (Euphorbia geniculata [1]; 0.5 kg/ha) of the same molecule?
The Shoot length was 9 cm.

And the Shoot length (Euphorbia geniculata [1]; 1.0 kg/ha)?
Its Shoot length is 9 cm.

What about the Shoot length (Euphorbia geniculata [1]; 2.0 kg/ha) of the same molecule?
Its Shoot length is 9 cm.

And the Shoot length (Cynodon dactylon; 1.0 kg/ha)?
The Shoot length was 5 cm.

What about the Shoot length (Cynodon dactylon; 2.0 kg/ha) of the same molecule?
The Shoot length was 5 cm.

What does the source list for c1ccc(C2=NOC3C4CC(C5N=NC45)C23)cc1 (stereo not drawn) [drawing 437]?
inhibition at 2000 g/ha (Medicago sativa; 2.0 kg/ha POST): 20%; inhibition at 4000 g/ha (Medicago sativa; 4.0 kg/ha POST): 20%; inhibition at 500 g/ha (Euphorbia geniculata [2]; 0.5 kg/ha PRE): 33%; inhibition at 1000 g/ha (Euphorbia geniculata [2]; 1.0 kg/ha PRE): 40%; inhibition at 2000 g/ha (Euphorbia geniculata [2]; 2.0 kg/ha POST): 30%; inhibition at 4000 g/ha (Euphorbia geniculata [2]; 4.0 kg/ha POST): 30%

What does the source list for c1ccc(C2=NNC3C4CC(C5N=NC45)C23)cc1 (stereo not drawn) [drawing 438]?
inhibition at 1000 g/ha (Hordeum vulg.; 1.0 kg/ha POST): 30%; inhibition at 1000 g/ha (Hordeum vulg.; 1.0 kg/ha PRE): 25%; inhibition at 2000 g/ha (Hordeum vulg.; 2.0 kg/ha POST): 30%; inhibition at 2000 g/ha (Hordeum vulg.; 2.0 kg/ha PRE): 25%; inhibition at 1000 g/ha (Cynodon dactyl.; 1.0 kg/ha POST): 13%; inhibition at 1000 g/ha (Cynodon dactyl.; 1.0 kg/ha PRE): 10%; inhibition at 2000 g/ha (Cynodon dactyl.; 2.0 kg/ha POST): 25%; inhibition at 2000 g/ha (Cynodon dactyl.; 2.0 kg/ha PRE): 10%; inhibition at 1000 g/ha (Glycine max): 10%; inhibition at 2000 g/ha (Glycine max): 25%; inhibition at 1000 g/ha (Poa prat.; 1.0 kg/ha PRE): 60%; inhibition at 2000 g/ha (Poa prat.; 2.0 kg/ha PRE): 60%; inhibition at 1000 g/ha (Tritic. aestiv.; 1.0 kg/ha POST): 10%; inhibition at 1000 g/ha (Tritic. aestiv.; 1.0 kg/ha PRE): 30%; inhibition at 2000 g/ha (Tritic. aestiv.; 2.0 kg/ha POST): 20%; inhibition at 2000 g/ha (Tritic. aestiv.; 2.0 kg/ha PRE): 30%; inhibition at 1000 g/ha (Euphorbia genic.): 10%; inhibition at 2000 g/ha (Euphorbia genic.): 30%; inhibition at 1000 g/ha (Arachys hypog.; 1.0 kg/ha POST): 20%; inhibition at 1000 g/ha (Arachys hypog.; 1.0 kg/ha PRE): 10%; inhibition at 2000 g/ha (Arachys hypog.; 2.0 kg/ha POST): 30%; inhibition at 2000 g/ha (Arachys hypog.; 2.0 kg/ha PRE): 10%

With CN(C)NC(=O)CCC(=O)O [drawing 439] as the molecule, how does the inhibition at 1000 g/ha (Cynodon dactyl.; 1.0 kg/ha POST) read?
The inhibition at 1000 g/ha was 20%.

What about the inhibition at 2000 g/ha (Cynodon dactyl.; 2.0 kg/ha POST) of the same molecule?
The inhibition at 2000 g/ha was 20%.

What about the inhibition at 1000 g/ha (Glycine max) of the same molecule?
Its inhibition at 1000 g/ha is 0%.

What about the inhibition at 2000 g/ha (Glycine max) of the same molecule?
Its inhibition at 2000 g/ha is 0%.

And the inhibition at 1000 g/ha (Euphorbia genic.)?
The inhibition at 1000 g/ha was 0%.

What about the inhibition at 2000 g/ha (Euphorbia genic.) of the same molecule?
Its inhibition at 2000 g/ha is 0%.

What about the inhibition at 1000 g/ha (Arachys hypog.; 1.0 kg/ha POST) of the same molecule?
The inhibition at 1000 g/ha was 30%.

What about the inhibition at 1000 g/ha (Arachys hypog.; 1.0 kg/ha PRE) of the same molecule?
The inhibition at 1000 g/ha was 50%.

And the inhibition at 2000 g/ha (Arachys hypog.; 2.0 kg/ha POST)?
The inhibition at 2000 g/ha was 30%.

What about the inhibition at 2000 g/ha (Arachys hypog.; 2.0 kg/ha PRE) of the same molecule?
Its inhibition at 2000 g/ha is 50%.

With C1C2C3N=NC3C1C1OC21 (stereo not drawn) [drawing 445] as the molecule, how does the pest or weed control at 3000 g/ha (Galium apar.) read?
Its pest or weed control at 3000 g/ha is 60%.

And the pest or weed control at 3000 g/ha (Ipom. spp.)?
Its pest or weed control at 3000 g/ha is 100%.

And the pest or weed control at 3000 g/ha (Mentha piper.)?
The pest or weed control at 3000 g/ha was 100%.

What about the pest or weed control at 3000 g/ha (Lolium mult.; 3.0 kg/ha POST) of the same molecule?
Its pest or weed control at 3000 g/ha is 100%.

And the pest or weed control at 3000 g/ha (Lolium mult.; 3.0 kg/ha PRE)?
The pest or weed control at 3000 g/ha was 95%.

And the pest or weed control at 3000 g/ha (Sinapis alba)?
The pest or weed control at 3000 g/ha was 90%.

How did the pest or weed control at 3000 g/ha (Galium apar.) turn out when c1ccc(C2=NOC3C4CC(C5N=NC45)C23)cc1 (stereo not drawn) [drawing 453] was run?
The pest or weed control at 3000 g/ha was 95%.

And the pest or weed control at 3000 g/ha (Ipom. spp.)?
The pest or weed control at 3000 g/ha was 100%.

And the pest or weed control at 3000 g/ha (Mentha piper.)?
The pest or weed control at 3000 g/ha was 75%.

What about the pest or weed control at 3000 g/ha (Lolium mult.; 3.0 kg/ha POST) of the same molecule?
The pest or weed control at 3000 g/ha was 100%.

And the pest or weed control at 3000 g/ha (Lolium mult.; 3.0 kg/ha PRE)?
The pest or weed control at 3000 g/ha was 100%.

And the pest or weed control at 3000 g/ha (Sinapis alba)?
Its pest or weed control at 3000 g/ha is 90%.

What about the “% damage” value (Cynodon dact. (seed)) of the same molecule?
The value was 100%.
